Literature values in patent US20230304031A1, “VECTORS AND METHODS FOR IN VIVO TRANSDUCTION” (Abintus Bio, Inc., priority 2020, published 2023).
Where a name gives a salt, the structure may show the parent alone. Read-outs that look alike come from different tables or passages of the source.

Experiments:
HSPC [1] = settings: cited from earlier work; for HSPC mobilization (in words): as reported in the cited literature; for G-CSF-induced HSPC mobilization with NSAID: blocking of PGE2 production
CD34+ cells / HSPC = settings: cited from earlier work; for CD34+ HSPC counts in the blood: 24 hours post-injection; for median yield of CD34+ cells: 5 µg/kg/day after chemotherapy, relapsed Hodgkin's disease; for increase in the harvest of CFU-GM over baseline: 5 µg/kg/day alone for 4 days
[2] = molecular target: phosphodiesterase type 5 (PDE5) (Homo sapiens, UniProt O76074); settings: after oral administration; cited from earlier work
VLA-4 = settings: after SCF stimulation; cited from earlier work
VLA-5 = settings: after SCF stimulation; cited from earlier work
HSPC [3] = settings: mice / murine models; cited from earlier work
HSCs = settings: cited from earlier work
[4] = 10 breast cancer patients, 0.84 ± 0.1 µg/kg/day

c1cc(CN2CCCNCCNCCCNCC2)ccc1CN1CCCNCCNCCCNCC1 [AMD3100, reference compound]
HSPC mobilization (in words) (HSPC [1]): rapidly mobilize HSPCs in various animal models
CD34+ HSPC counts in the blood (CD34+ cells / HSPC; subcutaneous 240 µg/kg): approximately 10 cells/µL
peak CD34+ HSPC counts in the blood (CD34+ cells / HSPC; subcutaneous 240 µg/kg): approximately 25 cells/µL
time to peak CD34+ HSPC counts (CD34+ cells / HSPC; subcutaneous 240 µg/kg): 8 to 10 h
CD34+ HSPC counts in the blood (CD34+ cells / HSPC; subcutaneous 480 µg/kg): approximately 20 cells/µL
peak CD34+ HSPC counts in the blood (CD34+ cells / HSPC; subcutaneous 480 µg/kg): approximately 30 cells/µL
time to peak CD34+ HSPC counts (CD34+ cells / HSPC; subcutaneous 480 µg/kg): 8 to 10 h

O=C(O)[C@H](Cc1ccc(OC(=O)N2CCCC2)cc1)NC(=O)[C@@H]1CCCN1S(=O)(=O)c1ccccc1 [BOP, N-(benzenesulfonyl)-L-prolyl-L-O-(1-pyrrolidinylcarbonyl)tyrosine]
HSPC mobilization (in words) (HSPC [1]): rapidly mobilizes long-term multi-lineage reconstituting HSPC

C[C@@H](NCCCc1cccc(C(F)(F)F)c1)c1cccc2ccccc12 [Cinacalcet]
HSPC adhesion, migration and homing (HSPC [1]; pharmacological activation of CaR): increased adhesion of HSPCs to collagen I and fibronectin

CCCCCCCCc1ccc(CCC(N)(CO)CO)cc1 [FTY720]
HSPC mobilization (in words) (HSPC [1]): decreases steady-state mobilization of HSPCs

CCOCc1cc(OC)c(-c2ccc(C[C@H](NC(=O)c3c(F)cccc3F)C(=O)O)cc2)c(OC)c1 [Firategrast]
HSPC mobilization (in words) (HSPC [1]): disrupt HSPC retention in the postnatal hematopoietic niche

CC(=O)N[C@@H](CS)C(=O)O [NAC, N-acetyl-L-cysteine]
HSPC mobilization (in words) (HSPC [1]): significantly abrogate UDP-glc-induced HSPC mobilization

CCCc1nn(C)c2c(=O)[nH]c(-c3cc(S(=O)(=O)N4CCN(C)CC4)ccc3OCC)nc12 [Sildenafil citrate]
time of peak activity [2]: 2 h

CC(=O)Oc1ccccc1C(=O)O [aspirin]
G-CSF-induced HSPC mobilization with NSAID (HSPC [1]): doubled

O=P1(N(CCCl)CCCl)NCCCO1 (centres unmarked) [cyclophosphamide, reference compound]
CD34+ cell yields (CD34+ cells / HSPC; doses of 4-7 g/m2): ~3.62 × 10^6 cells/kg
increase in the number of CFU-GM (CD34+ cells / HSPC; single dose of 4 g/m^2): up to 25 fold

CC(C)Cc1ccc(C(C)C(=O)O)cc1 (centres unmarked) [ibuprofen]
G-CSF-induced HSPC mobilization with NSAID (HSPC [1]): doubled

COc1ccc2c(c1)c(CC(=O)O)c(C)n2C(=O)c1ccc(Cl)cc1 [indomethacin]
G-CSF-induced HSPC mobilization with NSAID (HSPC [1]): doubled

GM-CSF: granulocyte-macrophage colony stimulating factor [reference compound]
median yield of CD34+ cells (CD34+ cells / HSPC): 5.6 × 10^6 CD34+ cells/kg
increase in the harvest of CFU-GM over baseline (CD34+ cells / HSPC): 33.7 fold
CFU-GM content of mobilized HSPC populations (CD34+ cells / HSPC; 250 µg/m2 versus 125 µg/m2): superior yield
increased HSPC in the peripheral blood (CD34+ cells / HSPC; 4-64 µg/kg/day continuous intravenous infusion up to 7 days, cancer patients): 4- to 18 fold

Natalizumab: humanized monoclonal anti-VLA-4 antibody [reference compound]
increase in circulating CD34+ cells (CD34+ cells / HSPC; patients receiving infusion therapy for multiple sclerosis): approximately 3 fold

SCF: Stem Cell Factor
increase of VLA-4 expression on CD34+ HSPC (VLA-4): approximately 2 fold
increase of VLA-5 expression on CD34+ HSPC (VLA-5): 4- to 10 fold

vedolizumab: humanized monoclonal antibody against the α4β7 integrin
HSPC mobilization (in words) (HSPC [3]): Reduction in plasma CXCL12 levels, accompanied by reduced HSPC egress

B1: G-CSF: hematopoietic growth factor (protein, UniProt P09919 31-207, looked up)
Granulocyte …: TPLGPASSLPQSFLLKCLEQVRKIQGDGAALQEKLVSECATYKLCHPEELVLLGHSLGIPWAPLSSCPSQALQLAGCLSQLHSGLFLYQGLLQALEGISPELGPTLDTLQLDVADFATTIWQQMEELGMAPALQPTQGAMPAFASAFQRRAGGVLVASHLQSFLEVSYRVLRHLAQP
median yield of CD34+ cells (CD34+ cells / HSPC): 7.6 × 10^6 CD34+ cells/kg
increase in the harvest of CFU-GM over baseline (CD34+ cells / HSPC): 35.6 fold
increase in CD34+ content of peripheral blood over baseline (CD34+ cells / HSPC; 5 µg/kg/day): sevenfold
median harvest (CD34+ cells / HSPC; 10 µg/kg/day, 34 patients with Hodgkin's disease or NHL): 2.8 × 10^6 CD34+ cells/kg
CD34+ HSPC yield (CD34+ cells / HSPC; 10 µg/kg/day): 11.32 × 10^7 /kg cells
increase in CD34+ content of peripheral blood over baseline (CD34+ cells / HSPC; 10 µg/kg/day): 28 fold
mean total harvested (CD34+ cells / HSPC; 12 µg/kg/day for 6 days, 17 patients with non-myeloid malignant disorders): 33 × 10^4 CFU-GM/kg
CD34+ HSPC yield (CD34+ cells / HSPC; 24 µg/kg/day): 48.25 × 10^7 /kg cells
mean yield after the first leukapheresis (CD34+ cells / HSPC; [4]): 0.77 × 10^6 CD34+ cells/kg
mean yield after the second leukapheresis (CD34+ cells / HSPC; [4]): 1.42 × 10^6 CD34+ cells/kg
increase in HSPC over baseline (CD34+ cells / HSPC; G-CSF 5 µg/kg/day for a further 5 days after 7 days of GM-CSF 5 µg/kg/day): 80 fold
mobilized PBPC cells expressing CD38 (CD34+ cells / HSPC; by mobilization regimen): 88%
mean harvest yield (CD34+ cells / HSPC; healthy subjects, G-CSF 5 plus GM-CSF 5 µg/kg/day versus G-CSF 10 µg/kg/day alone): 119 × 10^6 CD34+ cells/kg
numbers of HSCs in the bloodstream (HSCs; 1 day after 4 consecutive days of injections): 3,400 HSCs/mouse
HSC mobilization (comparison in words) (HSCs; regimens as worded): not significantly better than the 2-h Viagra + AMD3100 mobilization protocol
